From US9416130B2, “4-(8-methoxy-1-((1-methoxypropan-2-yl)-2-(tetrahydro-2H-pyran-4-yl)-1 H-imidazo[4,5-C]quinolin-7-yl)-3,5-dimethylisoxazole and its use as bromodomain inhibitor” (GlaxoSmithKline LLC, priority 2011, dated 2016)
Where two headings read alike, the source gives them in different places.

Legend:
[1] = system: LPS induced IL-6 secretion from whole blood; assay: LPS induced IL-6 secretion from whole blood; format: cell-based; conditions: LPS 200 ng/ml, 24 hours, IL-6 immunoassay
Description: Measurement of LPS Induced IL-6 Secretion from Whole Blood
Activation of monocytic cells by agonists of toll-like receptors such as bacterial lipopolysaccharide (LPS) results in production of key inflammatory mediators including IL-6. Such pathways are widely considered to be central to the pathophysiology of a range of auto-immune and inflammatory disorders.
Compounds to be tested are diluted to give a range of appropriate concentrations of which 1 μl of the diluted stocks is added to a 96 well plate. Following addition of whole blood (130 ul) the plates are incubated at 37 degrees (5% CO2) for 30 min before the addition of 10 μl of 2.8 ug/ml LPS, diluted in complete RPMI 1640 (final concentration=200 ng/ml), to give a total volume of 140 μl per well. After further incubation for 24 hours at 37 degrees, 140 μl of PBS are added to each well. The plates are sealed, shaken for 10 minutes and then centrifuged (2500 rpm×10 min). 100 μl of the supernatant are removed and IL-6 levels assayed by immunoassay (typically by MesoScale Discovery technology) either immediately or following storage at −20 degrees. Concentration response curves for each compound was generated from the data and an IC50 value was calculated

[2] = system: Breast cancer (ductal) cell line; assay: Oncology cell growth assay (analogous procedure, 96 well plates); format: cell-based; conditions: Homo sapiens, 1 breast cancer (ductal) line, read-out: gIC50
Description: (§1) Human cell lines (n=80 comprising cell lines described in Table 2 below) were cultured in RPMI-1640 containing 10% fetal bovine serum, 1000 viable cells per well were plated in 384-well black flat bottom polystyrene plates (Greiner #781086) in 48 μl of culture media. All plates were placed at 5% CO2, 37° C. overnight. The following day one plate was harvested with CellTiter-Glo (CTG, Promega #G7573) for a time equal to 0 (T0) measurement and compound (20 point titration from 14.7 uM to 7 pM) was added to the remaining plates. The final concentration of DMSO in all wells was 0.15%. Cells were incubated for 72 hours or the indicated time and each plate was developed with CellTiter-Glo reagent using a volume equivalent to the cell culture volume in the wells. Plates were shaken for approximately 2 minutes and chemiluminescent signal was read on the Analyst GT (Molecular Devices) or EnVision Plate Reader (Perkin Elmer).
(§2) Results are expressed as a percent of the T0 and plotted against the compound concentration. The T0 value was normalized to 100% and represents the number of cells at time of compound addition and the concentration response data were fit with a 4 parameter curve fit using XLfit software (model 205). The concentration that inhibited cell growth by 50% (gIC50) is the midpoint of the ‘growth window’ (between the T0 and DMSO control). The Ymin−T0 value is determined by subtracting the T0 value (100%) from the Ymin value (%) determined from the fit of the concentration response curve. Values from the wells with no cells were subtracted from all samples for background correction.
(§3) The compound of Example 2 was also tested in accordance with an analogous procedure using 96 well plates along with appropriate modifications to volumes and concentrations that would be apparent to those skilled in the art.

[3] = system: Acute monocytic leukemia cell line; assay: as above; format: cell-based; conditions: Homo sapiens, 1 acute monocytic leukemia line, read-out: gIC50
Description: as §1, §2, §3

[4] = system: Burkitt's lymphoma cell lines; assay: as above; format: cell-based; conditions: Homo sapiens, Burkitts lymphoma cell, range over 3 Burkitt's lymphoma lines, read-out: gIC50
Description: as §1, §2, §3

[5] = system: Chronic myeloid leukemia cell line; assay: as above; format: cell-based; conditions: Homo sapiens, 1 chronic myeloid leukemia line, read-out: gIC50
Description: as §1, §2, §3

[6] = system: Cutaneous T cell lymphoma cell line; assay: as above; format: cell-based; conditions: Homo sapiens, 1 cutaneous T cell lymphoma line, read-out: gIC50
Description: as §1, §2, §3

[7] = system: Acute promyelocytic leukemia cell line; assay: as above; format: cell-based; conditions: Homo sapiens, 1 acute promyelocytic leukemia line, read-out: gIC50
Description: as §1, §2, §3

[8] = system: Ovarian carcinoma cell line; assay: as above; format: cell-based; conditions: Homo sapiens, 1 ovarian carcinoma line, read-out: gIC50
Description: as §1, §2, §3

[9] = system: Multiple myeloma cell lines; assay: Oncology cell growth assay (384-well, CellTiter-Glo); format: cell-based, Human
Description: (§4) Oncology Cell Growth Assay
as §1, §2

[10] = system: Cervical cancer cell lines; assay: as above; format: cell-based; conditions: Homo sapiens; range over 4 cervical cancer cell lines; read-out: gIC50
Description: as §4, §1, §2

[11] = system: Small cell lung cancer (SCLC) cell lines; assay: as above; format: cell-based; conditions: Homo sapiens
Description: as §4, §1, §2

[12] = system: NUT-midline carcinoma cell lines; assay: as above; format: cell-based; conditions: Homo sapiens; range over 2 NUT-midline carcinoma cell lines; read-out: gIC50
Description: as §4, §1, §2

Neuroblastoma cell lines = assay: as above; format: cell-based; conditions: Homo sapiens
Description: as §4, §1, §2

Esophageal cell lines = assay: as above; format: cell-based; conditions: Homo sapiens
Description: as §4, §1, §2

LPS-induced serum IL-6 = assay: In vivo mouse model to demonstrate modulation of pro-inflammatory response (i.v. LPS); parameters: species or system Male CD1 mice; conditions: for reduced maximum (Cmax) IL-6 levels / reduced total exposures (AUC) of IL-6: 1 h before i.v. LPS 100 μg/kg, mouse
Description: Male CD1 mice (25-30 g, n=4 per group) received a single i.v. bolus injection of LPS (100 μg/kg) via the tail vein 1 h after pre-treatment with a single oral administration of either vehicle (1% (w/v) methylcellulose in sterile water) or the test compound (3, 10 and 30 mg/kg). Serial blood samples were obtained from the tail vein by direct venepuncture at various time points up to 5 h post-LPS administration for analysis of IL-6 and the test compound concentrations by Meso Scale Discovery (MSD) analysis and LC-MS/MS respectively.

[13] = positive control, maximal reduction observed, mouse LPS model

## COCC(C)n1c(C2CCOCC2)nc2cnc3cc(-c4c(C)noc4C)c(OC)cc3c21 (centres unmarked) [Example 1, 4-(8-methoxy-1-(1-methoxypropan-2-yl)-2-(tetrahydro-2H-pyran-4-yl)-1H-imidazo[4,5-c]quinolin-7-yl)-3,5-dimethylisoxazole]
[1]
  IC50: 100 to 1000 nM

## COC[C@@H](C)n1c(C2CCOCC2)nc2cnc3cc(-c4c(C)noc4C)c(OC)cc3c21 [Example 2, 4-(8-methoxy-1-((R)-1-methoxypropan-2-yl)-2-(tetrahydro-2H-pyran-4-yl)-1H-imidazo[4,5-c]quinolin-7-yl)-3,5-dimethylisoxazole]
[2]
  IC50: 537 nM
[3]
  IC50: 123 nM
[4]
  IC50: 181 to 807 nM
[5]
  IC50: 776 nM
[6]
  IC50: 162 nM
[7]
  IC50: 141 nM
[8]
  IC50: 707 nM
[9]; Homo sapiens, median of 16 multiple myeloma cell lines, read-out: gIC50 (median)
  IC50: 414 nM
[9]; Homo sapiens, range over 16 multiple myeloma cell lines, 72 hours, read-out: gIC50
  IC50: ≥ 1.1 nM
[9]; range for 15 out of 16 multiple myeloma cell lines, read-out: gIC50
  IC50: 1.1 to 2000 nM
[10]
  IC50: 266 to 847 nM
[11]; median of 38 SCLC cell lines, read-out: gIC50 (median)
  IC50: 538 nM
[11]; range for 35 of the 38 SCLC cell lines, read-out: gIC50
  IC50: 76 to 2500 nM
[11]; range over 38 SCLC cell lines, 72 hours, read-out: gIC50
  IC50: ≥ 76 nM
[12]
  IC50: 59 to 66 nM
Neuroblastoma cell lines; median of 12 neuroblastoma cell lines, read-out: gIC50 (median)
  IC50: 193 nM
Neuroblastoma cell lines; range over 12 neuroblastoma cell lines, read-out: gIC50
  IC50: 25 to 435 nM
Esophageal cell lines; median of 8 esophageal cell lines, read-out: gIC50 (median)
  IC50: 759 nM
Esophageal cell lines; range over 8 esophageal cell lines, read-out: gIC50
  IC50: 208 to 1540 nM
[1]
  IC50: 100 to 1000 nM
LPS-induced serum IL-6; 3 mg/kg single oral
  reduced maximum (Cmax) IL-6 levels: 46%
  reduced total exposures (AUC) of IL-6: 35%
LPS-induced serum IL-6; 10 mg/kg single oral
  reduced maximum (Cmax) IL-6 levels: 79%
  reduced total exposures (AUC) of IL-6: 70%
LPS-induced serum IL-6; 30 mg/kg single oral
  reduced maximum (Cmax) IL-6 levels: 73%
  reduced total exposures (AUC) of IL-6: 63%

## C[C@@H]1C[C@H]2[C@@H]3CCC4=CC(=O)C=C[C@]4(C)[C@@]3(F)[C@@H](O)C[C@]2(C)[C@@]1(O)C(=O)CO [dexamethasone, reference compound]
LPS-induced serum IL-6; [13]
  reduction in IL-6 AUC: 70%
  reduction in IL-6 Cmax: 73%
